# Values quoted from earlier work as cited in patent US20080292591A1, “Tumor mouse models using lentiviral vectors” (The Salk Institute for Biological Studies, priority 2007, published 2008).
# Legend:
# xenografts of tumors = conditions: animal models bearing xenografts of tumors
structure (smiles),measurement,setting,value
Cc1cc(Nc2cc(N3CCN(C)CC3)nc(Sc3ccc(NC(=O)C4CC4)cc3)n2)n[nH]1 [VX-680],antitumor activity in animal models,xenografts of tumors,robust antitumor activity
same,antiproliferative activity in vitro,a variety of cell lines,broad and potent antiproliferative activity
